Experimental data as given in patent US11814367B2, “Inhibitors of glycogen synthase 1 (GYS1) and methods of use thereof” (Maze Therapeutics, Inc., priority 2021, dated 2023).

Key:
[1] = molecular target: hGYS1 enzyme (recombinant hGYS1/GN1 protein) (Homo sapiens (Human), UniProt P13807); assay: GYS1 coupled enzyme assay (PK/LDH); type: biochemical; details: hGYS1/GN1 50 nM, UDP-Glucose 0.8 mM, G6P 1 mM; geometric mean of at least 2 runs
[2] = tested on: hGYS1 enzyme / glycogen synthesis in HeLa cells; assay: GYS1 cell based assay (glycogen synthesis, Glucose-glo); set-up: species or system human; details: Homo sapiens, HeLa, 24 h, 24 h incubation, 20 mM glucose, geometric mean of at least 2 runs
Method in brief: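 HeLa cells starved 24 h in medium containing only 1× Glutamax were plated onto compound in medium with 20 mM glucose (1% DMSO final) for 24 h, 37 °C, 5% CO2. Acid lysates were Tris-quenched, glucoamylase-digested (pH 5.3, 1 h, 37 °C) and read by Glucose-glo luminescence. IC50 came from Hill fits, as geometric mean of ≥2 runs.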

[3] = molecular target: hGYS2 enzyme (recombinant hGYS2/GN1 protein) (Homo sapiens (Human), UniProt P54840); assay: GYS2 coupled enzyme assay (PK/LDH); type: biochemical; details: geometric mean of at least 2 assay runs on separate days, read-out: Avg_IC50
Chain of hGYS2 enzyme (recombinant hGYS2/GN1 protein) (P54840 whole entry): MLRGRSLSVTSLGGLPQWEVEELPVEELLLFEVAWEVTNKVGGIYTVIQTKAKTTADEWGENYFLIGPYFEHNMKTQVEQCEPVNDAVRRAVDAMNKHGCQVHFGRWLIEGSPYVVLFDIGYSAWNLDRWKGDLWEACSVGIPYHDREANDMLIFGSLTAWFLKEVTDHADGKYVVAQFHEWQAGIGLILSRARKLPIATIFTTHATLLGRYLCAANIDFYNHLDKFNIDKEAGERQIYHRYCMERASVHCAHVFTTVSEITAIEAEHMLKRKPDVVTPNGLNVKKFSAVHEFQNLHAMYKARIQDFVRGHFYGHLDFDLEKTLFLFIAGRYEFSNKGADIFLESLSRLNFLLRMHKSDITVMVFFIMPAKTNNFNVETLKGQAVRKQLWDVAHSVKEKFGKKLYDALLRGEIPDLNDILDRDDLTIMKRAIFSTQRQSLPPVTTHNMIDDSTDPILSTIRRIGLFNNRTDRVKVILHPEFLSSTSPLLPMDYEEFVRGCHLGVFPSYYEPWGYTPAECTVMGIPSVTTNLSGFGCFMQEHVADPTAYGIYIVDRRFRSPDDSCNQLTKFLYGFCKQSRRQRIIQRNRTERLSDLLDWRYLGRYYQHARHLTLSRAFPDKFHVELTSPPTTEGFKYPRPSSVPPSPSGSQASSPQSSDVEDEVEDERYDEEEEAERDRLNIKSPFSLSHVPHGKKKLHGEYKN
Chain of hGYS2 enzyme (recombinant hGYS2/GN1 protein) (P46976 whole entry partner): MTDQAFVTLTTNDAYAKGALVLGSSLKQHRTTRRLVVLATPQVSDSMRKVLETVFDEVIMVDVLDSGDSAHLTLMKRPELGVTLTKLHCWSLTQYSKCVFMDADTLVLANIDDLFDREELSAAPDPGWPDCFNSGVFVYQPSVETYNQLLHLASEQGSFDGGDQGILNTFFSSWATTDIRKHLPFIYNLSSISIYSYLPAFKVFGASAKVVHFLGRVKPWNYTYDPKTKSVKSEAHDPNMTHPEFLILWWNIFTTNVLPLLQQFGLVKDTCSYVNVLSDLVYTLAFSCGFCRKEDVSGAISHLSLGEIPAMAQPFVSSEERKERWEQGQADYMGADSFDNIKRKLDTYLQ
Method in brief: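 Continuous PK/LDH-coupled readout of NADH loss at 340 nm over 10 min, with 200 nM hGYS2/GN1 and 2 mM each of UDP-glucose, glucose-6-phosphate and PEP, in 50 mM Tris pH 7.5 with 0.2% glycogen and 2.5% DMSO. Slopes were normalized to controls and IC50s fit to a Hill curve from duplicates.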

Chain of hGYS1 enzyme (recombinant hGYS1/GN1 protein) (P13807 whole entry): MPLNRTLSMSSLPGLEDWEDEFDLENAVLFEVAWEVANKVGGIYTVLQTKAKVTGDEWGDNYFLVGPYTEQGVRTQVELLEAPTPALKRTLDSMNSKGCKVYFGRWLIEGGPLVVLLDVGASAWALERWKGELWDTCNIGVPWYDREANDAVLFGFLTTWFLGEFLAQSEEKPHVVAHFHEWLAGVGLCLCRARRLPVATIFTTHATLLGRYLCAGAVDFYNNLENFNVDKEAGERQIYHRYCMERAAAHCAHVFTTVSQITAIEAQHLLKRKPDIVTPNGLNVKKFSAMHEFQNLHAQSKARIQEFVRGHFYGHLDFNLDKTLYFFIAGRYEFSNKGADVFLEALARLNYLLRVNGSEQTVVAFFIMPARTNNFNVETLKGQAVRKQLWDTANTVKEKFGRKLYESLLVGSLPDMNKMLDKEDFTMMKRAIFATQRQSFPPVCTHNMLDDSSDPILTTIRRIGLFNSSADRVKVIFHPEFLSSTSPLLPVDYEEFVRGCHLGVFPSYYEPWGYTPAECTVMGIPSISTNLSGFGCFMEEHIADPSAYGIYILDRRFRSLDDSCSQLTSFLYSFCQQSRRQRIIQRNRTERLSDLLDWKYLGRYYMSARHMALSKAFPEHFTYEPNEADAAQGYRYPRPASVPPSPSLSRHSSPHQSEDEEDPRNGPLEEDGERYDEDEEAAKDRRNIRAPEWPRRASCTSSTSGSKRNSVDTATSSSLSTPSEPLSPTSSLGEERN
Chain of hGYS1 enzyme (recombinant hGYS1/GN1 protein) (P46976 whole entry partner): as the sequence (P46976 whole entry partner) above

| IC50 [1] | IC50 [2] | IC50 [3] | SMILES |
| --- | --- | --- | --- |
| 12 nM | 580 nM | > 100000 nM | CC(C)c1ccc([C@@H](NC(=O)[C@@H]2C[C@@H](F)CN2C(=O)Cc2ccc[nH]c2=O)c2ccccc2)nc1F [Compound 793, (2S,4R)-4-fluoro-N-[(S)-[6-fluoro-5-(propan-2-yl)pyridin-2-yl](phenyl)methyl]-1-[2-(2-oxo-1,2-dihydropyridin-3-yl)acetyl]pyrrolidine-2-carboxamide] |
| 2 nM | 40 nM | > 100000 nM | CCn1c(=O)c(C)cn(CC(=O)N2C[C@H](F)C[C@H]2C(=O)N[C@@H](c2ccccc2)c2ccc(C(C)C)c(F)n2)c1=O [Compound 794, (2S,4R)-1-[2-(3-ethyl-5-methyl-2,4-dioxo-1,2,3,4-tetrahydropyrimidin-1-yl)acetyl]-4-fluoro-N-[(S)-[6-fluoro-5-(propan-2-yl)pyridin-2-yl](phenyl)methyl] pyrrolidine-2-carboxamide] |
| 11 nM | 240 nM | > 100000 nM | CCn1cccc(CC(=O)N2C[C@H](F)C[C@H]2C(=O)N[C@@H](c2ccccc2)c2ccc(C(C)C)c(F)n2)c1=O [Compound 795, (2S,4R)-1-[2-(1-ethyl-2-oxo-1,2-dihydropyridin-3-yl)acetyl]-4-fluoro-N-[(S)-[6-fluoro-5-(propan-2-yl)pyridin-2-yl](phenyl)methyl] pyrrolidine-2-carboxamide] |
